Laboratory results: article PMC10590756, “Glutarate regulates T cell metabolism and anti-tumour immunity” (Nature Metabolism, 2023)
pIC50: −log10 of the molar value.

Key:
CD8^+ T cells = test: Western blot of PDHK1, phosphorylated PDHc and PDHc; format: cell-based, human; conditions: 500 µM DEG
Procedure: Cell pellets were lysed by either urea-Tris buffer (8 M urea, 50 mM Tris-HCl (pH 7.5), 150 mM β-mercaptoethanol), sonicated twice for 45 s intercalated with 1 min incubation on ice and centrifuged at 14,000g, 4 °C for 15 min or by RIPA Lysis and Extraction Buffer (catalogue no. 89900, Thermo Fisher Scientific), according to the manufacturer’s instructions. Nuclear and cytosolic fractions were prepared from cells using the NE-PER kit (catalogue no. 78833, Thermo Fisher Scientific). Histones were extracted with the Histone Extraction Kit (catalogue no. ab113476, Abcam). Proteins were separated by SDS–PAGE and transferred to polyvinylidene fluoride (PVDF) membranes. Total protein stain was obtained using non-stain protein labelling reagent (catalogue no. A44448, Thermo Fisher Scientific). Membranes were then blocked in 5% milk prepared in PBS plus 0.05% Tween-20, incubated with primary antibodies overnight at 4 °C and horseradish peroxidase (HRP)-conjugated secondary antibodies (catalogue nos. HAF008 and HAF007, R&D Systems) for 1 h the next day. After enhanced chemiluminescence (ECL) exposure (catalogue no. GERPN2106, Sigma-Aldrich), membranes were imaged using an iBrightCL1000 (Thermo Fisher Scientific). The following primary antibodies from Cell Signaling Technology were used at a concentration of 1:1,000: anti-PDHK1 (catalogue no. 3820); anti-β-actin (catalogue no. 12262S); anti-PPIB (catalogue no. 43603); anti-OGDH (catalogue no. 26865S); anti-phospho-PDH α1 (catalogue no. 37115); anti-SIRT5 (catalogue no. 8779S); anti-H3 (catalogue no. 4499); anti-H3K4me2 (catalogue no. 9725); anti-H3K4me3 (catalogue no. 9751); anti-H3K9me2 (catalogue no. 4658); anti-H3K9me3 (catalogue no. 13969); anti-H3K27me2 (catalogue no. 9728); anti-H3K27me3 (catalogue no. 9733); anti-H3K36me2 (catalogue no. 2901); anti-H3K36me3 (catalogue no. 4909); anti-H3K79me2 (catalogue no. 5427); anti-H3K79me3 (catalogue no. 4360); anti-H3k9ac (catalogue no. 9649); anti-H3K18ac (catalogue no. 13998); and anti-H3k27ac (catalogue no. 8173). […]

[1] = target: T1, human full-length HIF-P4H-1 (Homo sapiens, UniProt Q96KS0); test: Cell-free HIF-P4H-1 activity assay (^14CO2 release); format: biochemical
T1 construct: The human full-length HIF-P4H-1 and KDM6A enzymes were recombinantly produced using Sf21 insect cells; made in house; host or cells: Sf21 insect cells (baculovirus)
T1 sequence (Q96KS0 whole entry): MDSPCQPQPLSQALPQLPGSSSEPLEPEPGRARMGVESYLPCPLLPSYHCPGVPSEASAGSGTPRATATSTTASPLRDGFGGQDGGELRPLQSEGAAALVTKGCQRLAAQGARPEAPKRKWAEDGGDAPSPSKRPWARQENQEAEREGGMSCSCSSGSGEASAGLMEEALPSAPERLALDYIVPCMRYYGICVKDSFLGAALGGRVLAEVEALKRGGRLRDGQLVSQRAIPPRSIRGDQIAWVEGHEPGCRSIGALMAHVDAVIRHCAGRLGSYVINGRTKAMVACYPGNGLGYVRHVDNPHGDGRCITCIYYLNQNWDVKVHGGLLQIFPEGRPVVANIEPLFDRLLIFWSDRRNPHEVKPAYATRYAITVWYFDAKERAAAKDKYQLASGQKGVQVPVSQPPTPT
From the text: The human full-length HIF-P4H-1 and KDM6A enzymes were recombinantly produced using Sf21 insect cells and the enzymes were purified with anti-FLAG M2 affinity gel as described previously[68],[69]. Briefly, the C terminus FLAG-tagged human HIF-P4H1-2 and KDM6A were generated using PCR and subcloned into pAcG3X and pVL1393 baculovirus expression vectors, respectively. The recombinant baculoviruses were generated by transducing the bacmid DNA into Spodoptera frugiperda Sf9 cells using BaculoGold DNA (HIF-P4H1-2, BD Biosciences) and BacMagic-3 DNA kit (for KDM6A, Novagen). Recombinant proteins were produced by infecting Sf21 insect cells with the corresponding amplified baculoviruses for 72 h at 27 °C. Cells were homogenized in a buffer containing 10 mM Tris, 150 mM NaCl, 100 mM glycine, 0.1% (v/v) Triton X-100, pH 7.8, and a protease inhibitor cocktail tablet without EDTA. The cell lysates were centrifuged at 21,000g for 30 min; the soluble fractions containing the FLAG-tagged proteins were affinity-purified using the anti-FLAG M2 affinity gel (Sigma-Aldrich). […] Protein concentration was measured with NanoDrop and proteins were analysed by SDS–PAGE followed by Coomassie brilliant blue staining. […] The IC50 value of the glutarate analogue was calculated from the inhibition saturation curves.

Compound: CCOC(=O)CCCC(=O)OCC [DEG, Diethyl glutarate]
- PDHK1 protein levels (CD8^+ T cells): not significantly altered
- PDHc phosphorylation levels (CD8^+ T cells): did not observe any changes
- protein expression of the PDHc (CD8^+ T cells): did not alter

Compound: O=C(O)CCCC(=O)O [glutarate, glutaric acid]
- pIC50 [1]: 2.70
